Patent US20160090556A1, “PRODUCTS COMPRISING MALODOR REDUCTION MATERIALS” (The Procter & Gamble Company, priority 2014, published 2016)

Test: Liquid dish neat product liquid-air partition coefficient
Assay type: physicochemical
Conditions: not given

SMILES | Log of liquid dish neat product liquid-air partition coefficient (Comment Code K/L)
C=C1C2CCC(C2)C1(C)CCC=C(C)CO (stereo not shown) [Material 616] | K (Log of liquid dish neat product liquid-air partition coefficient greater than or equal to −7)
C=CCCC(=O)c1ccccc1 [Material 792] | K (Log of liquid dish neat product liquid-air partition coefficient greater than or equal to −7)
CC(=CCC1CC=C(C)C1(C)C)CO (stereo not shown) [Material 908] | K (Log of liquid dish neat product liquid-air partition coefficient greater than or equal to −7)
CCC=CCC=CCCO [Material 929] | K (Log of liquid dish neat product liquid-air partition coefficient greater than or equal to −7)
CC1=CC2C(C(C)C)CCC(C)(O)C2CC1 (stereo not shown) [Material 1047] | K (Log of liquid dish neat product liquid-air partition coefficient greater than or equal to −7)
C=C(C)C1CCC(C)(O)CC1 (stereo not shown) [Material 612] | K (Log of liquid dish neat product liquid-air partition coefficient greater than or equal to −7)
CC(CO)CCCc1ccccc1 (stereo not shown) [Material 1012] | K (Log of liquid dish neat product liquid-air partition coefficient greater than or equal to −7)
CCCCCC=CC=CC(=O)OCC [Material 951] | K (Log of liquid dish neat product liquid-air partition coefficient greater than or equal to −7)
CC(=O)c1cc(C(C)(C)C)cc2c1CCC2(C)C [Material 563] | K (Log of liquid dish neat product liquid-air partition coefficient greater than or equal to −7)
CC1CC(C)(c2ccccc2)CO1 (stereo not shown) [Material 1006] | K (Log of liquid dish neat product liquid-air partition coefficient greater than or equal to −7)
CC(C)Cc1ccc(CC(C)C=O)cc1 (stereo not shown) [Material 1033] | K (Log of liquid dish neat product liquid-air partition coefficient greater than or equal to −7)
CC(C)Cc1ccc2ccccc2n1 [Material 849] | K (Log of liquid dish neat product liquid-air partition coefficient greater than or equal to −7)
COCCOC(C)OCc1ccccc1 (stereo not shown) [Material 768] | K (Log of liquid dish neat product liquid-air partition coefficient greater than or equal to −7)
CCC(C)C(=O)OCCc1ccccc1 (stereo not shown) [Material 954] | K (Log of liquid dish neat product liquid-air partition coefficient greater than or equal to −7)
CC(C)C(=O)OC1CC2CCC1(C)C2(C)C (stereo not shown) [Material 603] | K (Log of liquid dish neat product liquid-air partition coefficient greater than or equal to −7)
COC1CC2CC1C1CC(C=O)CC21 (stereo not shown) [Material 1026] | K (Log of liquid dish neat product liquid-air partition coefficient greater than or equal to −7)

Same assay, conditions: class code letter within Comment Code

SMILES | Log of liquid dish neat product liquid-air partition coefficient (Comment Code K/L)
CCOC(C=C(C)CCC=C(C)C)OCC [Material 521] | K (Log of liquid dish neat product liquid-air partition coefficient greater than or equal to −7)
OCC=Cc1ccccc1 [Material 555] | K (Log of liquid dish neat product liquid-air partition coefficient greater than or equal to −7)
c1ccc2c(c1)CC1COCOC21 (stereo not shown) [Material 247] | K (Log of liquid dish neat product liquid-air partition coefficient greater than or equal to −7)
O=C1CCCCCCCCCC/C=C/CCO1 [Material 289] | K (Log of liquid dish neat product liquid-air partition coefficient greater than or equal to −7)
OCCCc1ccccc1 [Material 254] | K (Log of liquid dish neat product liquid-air partition coefficient greater than or equal to −7)
CCCCCCCCCCCCCC(=O)OCC [Material 388] | K (Log of liquid dish neat product liquid-air partition coefficient greater than or equal to −7)
C=C(C)C1CC=C(C)C(O)C1 (stereo not shown) [Material 170] | K (Log of liquid dish neat product liquid-air partition coefficient greater than or equal to −7)
C=CC(=C)CCCC(C)(C)OC(C)=O [Material 35] | K (Log of liquid dish neat product liquid-air partition coefficient greater than or equal to −7)
COC(C=C(C)CCC=C(C)C)OC [Material 520] | K (Log of liquid dish neat product liquid-air partition coefficient greater than or equal to −7)
OC1CCC2CCCCC2C1 (stereo not shown) [Material 474] | K (Log of liquid dish neat product liquid-air partition coefficient greater than or equal to −7)
CC(C)CC1CC(C)(O)CCO1 (stereo not shown) [Material 350] | K (Log of liquid dish neat product liquid-air partition coefficient greater than or equal to −7)
CCCCCCCCCCCC#N [Material 498] | K (Log of liquid dish neat product liquid-air partition coefficient greater than or equal to −7)
CCC(C)=CCCC(C)=CC#N [Material 158] | K (Log of liquid dish neat product liquid-air partition coefficient greater than or equal to −7)
CCOC(C)OC1CCCCCCCCCCC1 (stereo not shown) [Material 363] | K (Log of liquid dish neat product liquid-air partition coefficient greater than or equal to −7)
CCCCCCOC(=O)c1ccccc1 [Material 271] | K (Log of liquid dish neat product liquid-air partition coefficient greater than or equal to −7)
CCCCCCCC1CCCC(=O)O1 (stereo not shown) [Material 463] | K (Log of liquid dish neat product liquid-air partition coefficient greater than or equal to −7)
CC(=O)OCC1CC=C(CCC=C(C)C)CC1 (stereo not shown) [Material 74] | K (Log of liquid dish neat product liquid-air partition coefficient greater than or equal to −7)
CC(C)=CCCC(C)=CCC1CCCC1=O (stereo not shown) [Material 307] | K (Log of liquid dish neat product liquid-air partition coefficient greater than or equal to −7)
CCCCCCCC(=O)OCCCCCC [Material 263] | K (Log of liquid dish neat product liquid-air partition coefficient greater than or equal to −7)
CCCCCCCCCC(=O)OCC [Material 397] | K (Log of liquid dish neat product liquid-air partition coefficient greater than or equal to −7)
CC(=O)OCC=Cc1ccccc1 [Material 553] | K (Log of liquid dish neat product liquid-air partition coefficient greater than or equal to −7)
C=CC1(C)CCC(C(C)C)=CC1C(=C)C (stereo not shown) [Material 461] | K (Log of liquid dish neat product liquid-air partition coefficient greater than or equal to −7)
CC(C)C(=O)OC1CC2CC1C1C=CCC21 (stereo not shown) [Material 487] | K (Log of liquid dish neat product liquid-air partition coefficient greater than or equal to −7)
CCOC(=O)C1CCC(C(=O)OCC)CC1 (stereo not shown) [Material 347] | K (Log of liquid dish neat product liquid-air partition coefficient greater than or equal to −7)
CC(O)CCc1ccccc1 (stereo not shown) [Material 98] | K (Log of liquid dish neat product liquid-air partition coefficient greater than or equal to −7)
COC(=O)C=Cc1ccccc1 [Material 117] | K (Log of liquid dish neat product liquid-air partition coefficient greater than or equal to −7)

Same assay, conditions: code letters K, L

SMILES | Comment Code: Log of liquid dish neat product liquid-air partition coefficient
C=C1C2CCC(C2)C1(C)CCC=C(C)CO (stereo not shown) [Material 616] | K (Log of liquid dish neat product liquid-air partition coefficient greater than or equal to −7)
CCOC(=O)OC1CCCCC1C(C)(C)C (stereo not shown) [Material 355] | K (Log of liquid dish neat product liquid-air partition coefficient greater than or equal to −7)
CC(C)C1CCC(CO)CC1 (stereo not shown) [Material 133] | K (Log of liquid dish neat product liquid-air partition coefficient greater than or equal to −7)
CC(C)c1ccc(CC=O)cc1 [Material 977] | K (Log of liquid dish neat product liquid-air partition coefficient greater than or equal to −7)
CC(C)C(=O)OCc1ccccc1 [Material 647] | K (Log of liquid dish neat product liquid-air partition coefficient greater than or equal to −7)
C/C=C/c1ccc(O)c(OC)c1 [Material 1084] | K (Log of liquid dish neat product liquid-air partition coefficient greater than or equal to −7)
CC(=O)OC(C)CC(C)(C)c1ccccc1 (stereo not shown) [Material 1134] | K (Log of liquid dish neat product liquid-air partition coefficient greater than or equal to −7)
O=COCCc1ccccc1 [Material 956] | K (Log of liquid dish neat product liquid-air partition coefficient greater than or equal to −7)
C=CC(C)(CCC=C(C)C)OC(=O)CCC (stereo not shown) [Material 151] | K (Log of liquid dish neat product liquid-air partition coefficient greater than or equal to −7)
CC(C=O)=Cc1ccccc1 [Material 701] | K (Log of liquid dish neat product liquid-air partition coefficient greater than or equal to −7)
CC(C)C(=O)OC1CC2CC1C1C=CCC21 (stereo not shown) [Material 487] | K (Log of liquid dish neat product liquid-air partition coefficient greater than or equal to −7)
CC(C)C(=O)OC1CC2CCC1(C)C2(C)C (stereo not shown) [Material 603] | K (Log of liquid dish neat product liquid-air partition coefficient greater than or equal to −7)
COc1ccc(COC(C)=O)cc1 [Material 664] | K (Log of liquid dish neat product liquid-air partition coefficient greater than or equal to −7)
